Source: US20250099431A1, “GLP-1R MODULATING COMPOUNDS” (priority 2020, published 2025)

Tests used:
[1] = Microsomal stability (liver microsomal assay, mixed cofactors); predicted hepatic clearance; assay type: in vitro ADME; conditions: liver microsomes 1.0 mg protein/mL (+UDPGA +NADPH), 1 μM analyte, 37° C.; scaled with human liver weight and hepatic blood flow 1.3 L/hr/kg
Description: Metabolic stability of compounds was assessed using human or rat liver microsomal assays (Corning). In these assays, 10 nL of each analyte at a concentration of 1 mM in 100% DMSO was dispensed into a well of a polypropylene plates using the Echo 550 acoustic liquid dispenser (Labcyte®). Each plate contained 384 wells with a single analyte in each well.
A solution of human (Corning® Gentest™ Human Mixed Pooled Microsomes or rat (Corning® Gentest™ Rat [Sprague-Dawley] Pooled Liver Microsomes) liver microsomes at 2 mg/ml in 100 mM K2HPO4/KH2PO4 at pH 7. 4 was combined with alamethicin from Trichoderma viride (Sigma-Aldrich) 0.0225 mg/ml. The mixture was incubated on ice for 15 minutes. 5 μL of this mixture was added to individual wells following a 15 minute incubation at room temperature and supplemented with 5 μL NADPH Regenerating Solution of cofactors (Corning® Gentest™ UGT Reaction Mix) containing 100 mM K2HPO4/KH2PO4 at pH 7.4, 2.6 mM NADP+, 6.6 mM glucose-6-phosphate, 6.6 mM MgCl2, 0.8 U/mL glucose-6-phosphate dehydrogenase, 0.1 mM sodium citrate, and 6.8 mM uridine diphosphate-glucuronic acid. The final concentration of each analyte compound at the beginning of the reaction was 1 μM. The reactions were incubated at 37° C. and samples were collected at time points of 0, 5, 15, 30, 40, 50, 60, and 70 minutes for further analysis. Background data were collected using reactions without analyte compounds.
Upon collection of the sample time points, samples were quenched with 30 μL of a solution of 72% acetonitrile, 8% methanol, 0.1% formic acid, 19.9% water, and internal standard (IS). Reaction plates were spun in a centrifuge at speed of 4,000 rcf for 30 minutes at 4° C., following a dilution of the 10 μL quenched reaction into 40 μL de-ionized water, yielding assay plates.
Assay plates were analyzed using solid-state extraction coupled with quadrupole time-of-flight mass spectrometer, using Agilent QToF 6530 RapidFire 360 system, with C4 type A solid state cartridges. Analysis was performed in either positive or negative ionization modes. Mobile phases contained 0.1% formic acid in water for loading analytes onto solid state extraction cartridges and 0.1% formic acid in acetonitrile for elution into a mass spectrometer in positive ionization mode, or 0.1% acetic acid in water for loading and 0.1% acetic acid in acetonitrile for extraction in negative ionization mode. Peak-area ratios of integrated counts for individual compounds to IS were plotted as semi-logarithmic chart of log vs time. The initial linear portion of decay was fitted to a linear regression equation to derive the half-time of analyte decay.
Pharmacological parameters for an analyte compound metabolism were calculated using the following equations: […]
wherein concentration refers to the protein concentration (mg/ml) in the reaction.
This scales the in vitro intrinsic clearance up to the value that would be predicted for the entire mass of liver tissue (but with no restriction by blood flow). The value depends upon the size of the liver (species-dependent) and the yield of microsomal protein as appropriate (assumed to be species-independent).
Hepatic clearance will depend upon the inter-relationship of intrinsic clearance and hepatic blood flow and was predicted from in vitro data using a variety of approaches.
The hepatic extraction is reported as the predicted clearance expressed as a proportion of hepatic blood flow.

GLP-1R = GLP-1R (Homo sapiens (Human), UniProt P43220); test: GLP-1R activation: cAMP increase in CHO cells stably expressing GLP-1R; assay type: cell-based; conditions: cAMP increase, 10 point dose response, 30 minutes incubation at 37° C., read-out: EC50
Chain of GLP-1R (P43220 24-463): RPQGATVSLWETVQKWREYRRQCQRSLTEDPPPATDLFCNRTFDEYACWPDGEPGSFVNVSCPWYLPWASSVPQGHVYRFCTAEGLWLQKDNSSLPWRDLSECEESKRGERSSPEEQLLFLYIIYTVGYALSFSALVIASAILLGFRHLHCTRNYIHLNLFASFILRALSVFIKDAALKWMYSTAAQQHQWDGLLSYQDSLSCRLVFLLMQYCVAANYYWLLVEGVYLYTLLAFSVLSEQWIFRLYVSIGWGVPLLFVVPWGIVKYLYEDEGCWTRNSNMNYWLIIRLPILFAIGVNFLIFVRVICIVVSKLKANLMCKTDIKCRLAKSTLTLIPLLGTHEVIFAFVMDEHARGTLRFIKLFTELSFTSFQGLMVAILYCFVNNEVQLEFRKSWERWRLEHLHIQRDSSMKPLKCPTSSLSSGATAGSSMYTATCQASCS
Description: GLP-1R activation by a compound of the present disclosure was quantified by measuring cAMP increase in CHO cells stably expressing GLP-1R (MultiSpan product #C1267-1a). […] The cells were then incubated overnight at 37° C., 5% CO2. […] 1% BSA (Rockland Immunochemicals product #BSA-1000)). Following the medium change, the cells were incubated for 1 hour at 37° C., 5% CO2. The tested GLP-1 compound was added to the cells in a 10 point dose response followed by a 30 minutes incubation at 37° C., 5% CO2. cAMP concentration increase was then detected using Cisbio's cAMP Gs Dynamic Kit (product #62AM4PEC) according to the manufacturer's protocol. The response was plotted against the log of the agonist concentration and fitted to a sigmoidal equation to determine the EC50.

Structure (SMILES) | Predicted Hepatic Clearance (Pred. Cl.) [1] [mL/min/kg] | EC50 (GLP-1R) [nM]
CC1(c2ccc(Cl)cc2F)Oc2cccc(-c3ccc(Cc4nc5ccc(C(=O)O)cc5n4CC4(n5ccnn5)CC4)c(F)c3)c2O1 (stereo not shown) [Example 51, 1-((1-(1H-1,2,3-triazol-1-yl)cyclopropyl)methyl)-2-(4-(2-(4-chloro-2-fluorophenyl)-2-methylbenzo[d][1, 3]dioxol-4-yl)-2-fluorobenzyl)-1H-benzo[d]imidazole-6-carboxylic acid] | 2.5 | 
COCCn1c(Cc2c(F)cc(-c3cccc4c3OC(C)(c3ccc(C#N)cc3F)O4)c(F)c2F)nc2ccc(C(=O)O)cc21 (stereo not shown) [Example 88, 2-(4-(2-(4-cyano-2-fluorophenyl)-2-methylbenzo[d][1, 3]dioxol-4-yl)-2,3,6-trifluorobenzyl)-1-(2-methoxyethyl)-1H-benzo[d]imidazole-6-carboxylic acid] | 8 | 12
COCCn1c(Cc2c(F)cc(-c3cccc4c3OC(C)(c3ccc(C#N)cc3F)O4)c(F)c2F)nc2ccc(C(=O)O)cc21 (single isomer, unassigned) [Example 96, 2-(4-(2-(4-cyano-2-fluorophenyl)-2-methylbenzo[d][1, 3]dioxol-4-yl)-2,3,6-trifluorobenzyl)-1-(2-methoxyethyl)-1H-benzo[d]imidazole-6-carboxylic acid] | 3.5 | 57
COCCn1c(Cc2c(F)cc(-c3cccc4c3O[C@@](C)(c3ccc(Cl)cc3F)O4)cc2F)nc2ccc(C(=O)O)cc21 [Example 102, 2-(4-(2-(4-chloro-2-fluorophenyl)-2-methylbenzo[d][1, 3]dioxol-4-yl)-2,6-difluorobenzyl)-1-(2-methoxyethyl)-1H-benzo[d]imidazole-6-carboxylic acid] | 3.17 | 65
COCCn1c(Cc2cc(-c3cccc4c3OC(C)(c3ccc(Cl)cc3F)O4)cs2)nc2ccc(C(=O)O)cc21 (stereo not shown) [Example 59, 2-((4-(2-(4-chloro-2-fluorophenyl)-2-methylbenzo[d][1, 3]dioxol-4-yl)thiophen-2-yl)methyl)-1-(2-methoxyethyl)-1H-benzo[d]imidazole-6-carboxylic acid] |  | 1620
COCCn1c(Cc2cc(F)c(-c3cccc4c3OC(C)(c3ccc(Cl)cn3)O4)cc2F)nc2ccc(C(=O)O)cc21 (stereo not shown) [Example 114, 2-[[4-[2-(5-chloro-2-pyridyl)-2-methyl-1,3-benzodioxol-4-yl]-2,5-difluoro-phenyl]methyl]-3-(2-methoxyethyl) benzimidazole-5-carboxylic acid] | 7.67 | 

Next, values leading:

Predicted Hepatic Clearance (Pred. Cl.) [1] [mL/min/kg] | EC50 (GLP-1R) [nM] | Structure (SMILES)
3.83 | 0.034 | CC1(c2ccc(Cl)cc2F)Oc2cccc(-c3cc(F)c(Cc4nc5ccc(C(=O)O)cc5n4C[C@@H]4CCO4)cc3F)c2O1 (stereo partly drawn) [Example 28, 2-(4-(2-(4-chloro-2-fluorophenyl)-2-methylbenzo[d][1, 3]dioxol-4-yl)-2,5-difluorobenzyl)-1-(((S)-oxetan-2-yl)methyl)-1H-benzo[d]imidazole-6-carboxylic acid]
5.83 |  | COCCn1c(Cc2cc(F)c(-c3cccc4c3OC(C)(c3ccc(Cl)cc3F)O4)cc2F)nc2ccc(C(=O)O)cc21 (stereo not shown) [Example 113, 2-[[4-[2-(4-chloro-2-fluoro-phenyl)-2-methyl-1,3-benzodioxol-4-yl]-2,5-difluoro-phenyl]methyl]-3-(2-methoxyethyl) benzimidazole-5-carboxylic acid]
 | 20 | CC1(c2ccc(Cl)cc2F)Oc2cccc(-c3cc(F)c(Cc4nc5ccc(C(=O)O)cc5n4CCS(C)(=O)=O)c(F)c3)c2O1 (stereo not shown) [Example 82, 2-[[4-[2-(4-chloro-2-fluoro-phenyl)-2-methyl-1,3-benzodioxol-4-yl]-2,6-difluoro-phenyl]methyl]-3-(2-methylsulfonylethyl) benzimidazole-5-carboxylic acid]
